These results are taken from patent publication USRE48887E1, “RNA interference compositions and methods for malignant tumors” (Nitto Denko Corporation, priority 2014, dated 2022).

Data set [1] relates to GST-π mRNA. Description: Knockdown of GST-π mRNA in A549 xenograft tumors in vivo. More on the design: species or system mouse.
The test system of data set [2] is A549 orthotopic lung cancer tumors. Description: Orthotopic A549 lung cancer mouse model. The note with it: 2 mg/kg.
Experimental: The anti-tumor efficacy of the siRNA formulation against human lung cancer A549 was evaluated by comparing the final primary tumor weights measured at necropsy for the treatment group and the vehicle control group.
For this study, male NCr nu/nu mice, 5-6 weeks old, were used. The experimental animals were maintained in a HEPA filtered environment during the experimental period. The siRNA formulations were stored at 4° C. before use, and warmed to room temperature 10 minutes prior to injection in mouse.
For this A549 human lung cancer orthotopic model, on the day of surgical orthotopic implantation (SOI), the stock tumors were harvested from the subcutaneous site of animals bearing A549 tumor xenograft and placed in RPMI1640 medium. Necrotic tissues were removed and viable tissues were cut into 1.5-2 mm^3 pieces. The animals were anesthetized with isoflurane inhalation and the surgical area was sterilized with iodine and alcohol. A transverse incision approximately 1.5 cm long was made in the left chest wall of the mouse using a pair of surgical scissors. An intercostal incision was made between the third and the fourth rib and the left lung was exposed. One A549 tumor fragment was transplanted to the surface of the lung with an 8-0 surgical suture (nylon). The chest wall was closed with a 6-0 surgical suture (silk). The lung was re-inflated by intrathoracic puncture using a 3 cc syringe with a 25 G×1½ needle to draw out the remaining air in the chest cavity. The chest wall was closed with a 6-0 surgical silk suture.
Three days after tumor implantation, the model tumor-bearing mice were randomly divided into groups of ten mice per group. For the group of interest, treatment of the ten mice was initiated three days after tumor implantation.
For the group of interest, the formulation was (Ionizable lipid: cholesterol:DOPE:DOPC:DPPE-PEG-2K:DSPE-PEG-2K), a liposomal composition. The liposomes encapsulated the GST-π siRNA.
For the study endpoint, the experimental mice were sacrificed forty-two days after treatment initiation. […]
Data set [3] deals with A549 cancer xenograft tumors. Description: A549 cancer xenograft model, tumor inhibition efficacy. The note with it: 0.75 mg/kg IV, two injections (day 1 and 15). Type of data set: in vivo, mouse. As to the method:
For the cancer xenograft model, an A549 cell line was obtained from ATCC. The cells were maintained in culture medium supplemented with 10% Fetal Bovine Serum and 100 U/ml penicillin and 100 μg/ml streptomycin. Cells were split 48 hrs before inoculation so that cells were in log phase growth when harvested. Cells were lightly trypsinized with trypsin-EDTA and harvested from tissue culture. The number of viable cells was counted and determined in a hemocytometer in the presence of trypan blue (only viable cells are counted). The cells were resuspended to a concentration of 5×10^7/ml in media without serum. […]
For tumor volume measurements and randomization, tumor size was measured to the nearest 0.1 mm. Tumor volumes were calculated using the formula: […]. […] Tumor volumes were monitored three times for week 1, twice for the rest of weeks, including the day of study termination. […]
For body weight, mice were weighed to the nearest 0.1 g. Body weights were monitored and recorded daily within 7 days post dosing for first dose. Body weights were monitored and recorded twice for weeks, for the rest of weeks, including the day of study termination.
For tumors collection, on 28 days post first dosing, tumor volume was measured, and tumor was dissected for weight measurement, and stored for PD biomarker study. Tumor weight was recorded. […]

Data set [4] has as its system PUMA. Description: PUMA biomarker for apoptosis of cancer cells in vitro (qPCR). Type of data set: cell-based. The note with it: from 2-4 days after transfection; siRNA 10 nM. As to the method: The protocol for the PUMA biomarker was as follows. One day before transfection, cells were plated in a 96-well plate at 2×10^3 cells per well with 100 μl of DMEM (HyClone Cat. # SH30243.01) containing 10% FBS and cultured in a 37° C. incubator containing a humidified atmosphere of 5% CO2 in air. Next day, before transfection the medium was replaced with 90 μl of Opti-MEM I Reduced Serum Medium (Life Technologies Cat. #31985-070) containing 2% FBS. Then, 0.2 μl of Lipofectamine RNAiMAX (Life Technologies Cat. #13778-100) were mixed with 4.8 μl of Opti-MEM I for 5 minutes at room temperature. 1 μl of the siRNAs (stock conc. 1 μM) was mixed with 4 μl of Opti-MEM I and combined with the RNAiMAX solution and then mixed gently. The mixture was incubated for 10 minutes at room temperature to allow the RNA-RNAiMAX complexes to form. 10 μl of RNA-RNAiMAX complexes were added per well, to final concentration of the siRNA 10 nM. The cells were incubated for 2 hours and medium changed to fresh Opti-MEM I Reduced Serum Medium containing 2% FBS. […] PUMA (BBC3, Cat# Hs00248075, Life Technologies) mRNA levels were measured by qPCR with TAQMAN.
The protocol for the PUMA biomarker was as follows. […] PUMA (BBC3, Cat#Hs00248075, Life Technologies) mRNA levels were measured by qPCR with TAQMAN.

d = 2'-deoxy (DNA); m = 2'-O-methyl; r = 2'-OH (RNA); f = 2'-fluoro

For the substance “SEQ ID NOs:61 and 126: GST-π siRNA; sense GAAGCCUUUUGAGACCCUAtt; antisense UAGGGUCUCAAAAGGCUUCag (sense GAAGCCUUUUGAGACCCUATT; antisense UAGGGUCUCAAAAGGCUUCAG; chemistry not given here)”, the “reduction of GST-π mRNA” value in data set [1] (4 mg/kg, single injection, 24 hours after injection) is on record as “about 40%”. Further, in data set [1] (4 days after injection in a lipid formulation), the “GST-π mRNA expression” value is “significant reduction”. Further, the “final tumor average weights reduced as compared to control” value in data set [2] (after 43 days, liposomal formulation, athymic nude mice) was 2.8 fold. Moreover, in data set [2] (entire experimental period), the “mean body weight of the mice” value is on record as “maintained within the normal range” and the “other symptoms of toxicity” value was “not observed”.
On to “SEQ ID NOs:156 and 182: GST-π siRNA, Table 2; sense GAAGCCUUUUGAGACCCUAUU; antisense fUAGgGuCuCAAAAGGCUUCUU (antisense UAGGGUCUCAAAAGGCUUCUU; sense: sugars from the 5' end mmmrrrrmrmrrrrrrrmmmm, backbone not given here; antisense: sugars from the 5' end frrdrdrdmrmmrrrrmmrmm, backbone and T or U not given here)”, for which the “tumor volume reduced as compared to control” value in data set [3] (after 36 days, liposomal formulation) is 2 fold. In data set [3] (endpoint day), the tumor weight reduced entry was “more than 2 fold”. Also, the “expression of PUMA” value in data set [4] is reported as “greatly increased”.
